Laboratory results: US20240254175A1, “NOVEL SELECTIVE ANT[…] PEPTIDES” (BOMBI BIOMICS BV, priority 2021, published 2024)
Non-standard residues stand in square brackets, D forms with d. Residues, ends and D or L forms follow the SMILES beside them. No end group written: not given here. *: point of attachment. Palmitoyl = CCCCCCCCCCCCCCCC(=O)*

Legend:
[1] = system: C. acnes biofilm; conditions: strains with the strongest C. acnes biofilm formation ability
Protocol: Briefly, 250 μl of bacterial cells (1×10^6 CFU/ml) of 10 strains (C. acnes 3, 4, 23, 25, 55, 61, 62, 63, 68, 78) (FIG. 9) with the strongest biofilm formation ability were inoculated in a Greiner polyethylene 96well plate (Sigma Aldrich); TSB culture medium containing no bacteria was used as the blank control, and the plate was incubated at 37° C. for 24 hours. The culture medium was subsequently removed, and wells were carefully washed with PBS three times to remove C. acnes bacteria.
Subsequently, 250 μl of TSB culture medium containing the aforementioned polypeptides in serial doubling dilutions was added to each well. TSB medium without any of the polypeptides was used as a negative control, and plates were incubated at 37° C. for 24 hours. If OD600<0.1, there was no bacterial growth, and the lowest concentration without bacterial growth at this time point was recorded; this is the Minimum Biofilm Inhibitory Concentration (MBIC). Then, the cells and polypeptides in the 96-well cell culture plate were washed with PBS, and 250 μl of TSB culture medium was added to each well.
The plates were incubated at 37° C. for 24 hours to re-grow the surviving biofilm bacteria. […] The lowest concentration at which no bacterial growth was recorded is the minimal biofilm eradication concentration (MBEC).

[2] = system: other bacteria tested (C. granulosum, C. avidum, S. aureus, S. epidermis, C. striatum); assay: In vitro killing assay on the other (non C. acnes) bacteria; type: cell-based
Protocol: Inoculi of mid-log phase bacteria were prepared by incubating the above isolated colonies from blood agar plates in Tryptic Soy Broth (TSB) medium (Becton Dickinson, Le Pont de Clax, France) for 2.5 hours and then diluted to the concentration needed.
For the in vitro killing assay on mid-log phase bacteria, each of the above strains were resuspended to a concentration of 1×10^6 bacteria/ml in phosphate buffered saline (PBS). Subsequently, 200 μl was added to a concentration range of peptides Wildtype BLP-7, BMBN-1, BMBN-2, BMBN-3, BMBN-4, BMBN-5, BMBN-6, and BMBN-7 that were lyophilized in advance. Subsequently, the bacteria-peptide mixtures were incubated for 1 hour at 37° C. To establish the killing capacity and specificity of these peptides, the suspensions were serially diluted and plated onto DST agar plates to measure viable CFU counts. IC90, IC99 and IC99.9 values were calculated by linear regression analysis. […] Results were pooled from 4 independent experiments concerning the above C. acnes strains (FIG. 2B) and 5 independent experiments concerning the other non C. acnes related strains (FIG. 2B continued). The results are expressed as mean±standard deviation (SD).

[3] = system: human erythrocytes
Protocol: A hemolytic assay was performed as previously described by Zelezetsky et al.. Freshly drawn human erythrocytes were rinsed three times with phosphate buffered saline (PBS) and resuspended in PBS to 4% (v/v). […] PBS and 0.1% (v/v) Triton-X 100 were used as 0% and 100% hemolytic control respectively. Plates were incubated at 37° C. for 1 hour.
Subsequently, the plate was centrifuged and the supernatant was transferred to a new plate. The release of hemoglobin in the supernatant was monitored at absorbance of 450 nm using an Infinite M1000 Microplate reader (Tecan). Results were pooled from three independent experiments and expressed as mean±SD. HC10 and HC50 were defined as the peptide concentrations causing 10% and 50% hemolysis on human erythrocytes, respectively.

**Q.** With `CCCCCCCCCCCCCCCC(=O)NCC(=O)N[C@H](C(=O)NCC(=O)NCC(=O)N[C@@H](C)C(=O)N[C@@H](CC(C)C)C(=O)N[C@@H](CC(C)C)C(=O)N[C@@H](CO)C(=O)N[C@@H](C)C(=O)NCC(=O)N[C@@H](CCCCN)C(=O)N[C@@H](CO)C(=O)N[C@@H](C)C(=O)N[C@@H](CC(C)C)C(=O)N[C@@H](CCCCN)C(=O)NCC(=O)N[C@@H](CC(C)C)C(=O)N[C@@H](C)C(=O)N[C@@H](CCCCN)C(=O)NCC(=O)N[C@@H](CC(C)C)C(=O)N[C@@H](C)C(=O)N[C@@H](CCC(=O)O)C(=O)N[C@@H](Cc1c[nH]cn1)C(=O)N[C@@H](Cc1ccccc1)C(=O)N[C@@H](C)C(=O)N[C@@H](CC(N)=O)C(N)=O)[C@@H](C)CC` [BMBN-1] (Palmitoyl-GIGGALLSAGKSALKGLAKGLAEHFAN-NH2) as the molecule, how does the “MBEC (concentration that eradicates the biofilm)” value [1] read?
**A.** 235 to 496 µg/mL

**Q.** How did the “effect on other, untargeted bacteria / specificity towards C. acnes (in words)” value [2] turn out when `CCCCCCCCCCCCCCCC(=O)N[C@@H](CCC(=O)O)C(=O)N[C@@H](CCCNC(=N)N)C(=O)N[C@@H](CC(N)=O)C(=O)N[C@@H](CC(N)=O)C(=O)N[C@@H](Cc1ccccc1)C(=O)NCC(=O)NCC(=O)NCC(=O)N[C@H](CC(N)=O)C(=O)N[C@H](C)C(=O)N[C@H](Cc1ccccc1)C(=O)N[C@H](Cc1c[nH]cn1)C(=O)N[C@H](CCC(=O)O)C(=O)N[C@H](C)C(=O)N[C@H](CC(C)C)C(=O)NCC(=O)N[C@H](CCCCN)C(=O)N[C@H](C)C(=O)N[C@H](CC(C)C)C(=O)NCC(=O)N[C@H](CCCCN)C(=O)N[C@H](CC(C)C)C(=O)N[C@H](C)C(=O)N[C@H](CO)C(=O)N[C@H](CCC(=O)O)C(=O)NCC(=O)N[C@H](C)C(=O)N[C@H](CO)C(=O)N[C@H](CC(C)C)C(=O)N[C@H](CC(C)C)C(=O)N[C@H](C)C(=O)NCC(=O)NCC(=O)N[C@@H](C(=O)NCC(N)=O)[C@H](C)CC` [BMBN-6] (Palmitoyl-ERNNFGGG[dN][dA][dF][dH][dE][dA][dL]G[dK][dA][dL]G[dK][dL][dA][dS][dE]G[dA][dS][dL][dL][dA]GG[dI]G-NH2) was run?
**A.** specificity towards C. acnes only negligibly decreased

**Q.** For `CCCCCCCCCCCCCCCC(=O)N[C@H](CCC(=O)O)C(=O)N[C@H](CCCNC(=N)N)C(=O)N[C@H](CC(N)=O)C(=O)N[C@H](CC(N)=O)C(=O)N[C@H](Cc1ccccc1)C(=O)NCC(=O)NCC(=O)NCC(=O)NCC(=O)N[C@@H](C(=O)NCC(=O)NCC(=O)N[C@H](C)C(=O)N[C@H](CC(C)C)C(=O)N[C@H](CC(C)C)C(=O)N[C@H](CO)C(=O)N[C@H](C)C(=O)NCC(=O)N[C@H](CCC(=O)O)C(=O)N[C@H](CO)C(=O)N[C@H](C)C(=O)N[C@H](CC(C)C)C(=O)N[C@H](CCCCN)C(=O)NCC(=O)N[C@H](CC(C)C)C(=O)N[C@H](C)C(=O)N[C@H](CCCCN)C(=O)NCC(=O)N[C@H](CC(C)C)C(=O)N[C@H](C)C(=O)N[C@H](CCC(=O)O)C(=O)N[C@H](Cc1c[nH]cn1)C(=O)N[C@H](Cc1ccccc1)C(=O)N[C@H](C)C(=O)N[C@H](CC(N)=O)C(N)=O)[C@H](C)CC` [BMBN-7] (Palmitoyl-[dE][dR][dN][dN][dF]GGGG[dI]GG[dA][dL][dL][dS][dA]G[dE][dS][dA][dL][dK]G[dL][dA][dK]G[dL][dA][dE][dH][dF][dA][dN]-NH2), which “hemolytic activity (in words)” value [3] is on record?
**A.** negligible hemolytic activity

**Q.** What about the “MBIC (concentration that inhibits the biofilm)” value [1] of the same molecule?
**A.** 56 to 117 µg/mL

**Q.** “GIGGALLSAGKSALKGLAKGLAEHFAN-NH2 [Wildtype BLP-7, reference compound]” was tested. Which “hemolytic activity (in words)” value [3] did it give?
**A.** within the range of negligible hemolytic activity
